Common to all, as to format: biochemical
Assay [1] has as its target CDK2 (Homo sapiens, UniProt P24941). The assay is described as follows: Enzyme selectivity panel. The settings on record: 1 mM ATP.
Protocol: (§2) The kinase assays were carried out at room temperature in HEPES 50 mM, pH 7.0, NaN3 0.02%, BSA 0.01%, Orthovanadate 0.1 mM, DTT 1 mM, MgCl2 10 mM in a final volume of 10 µL. Test compounds were transferred to the plate wells by ECHO liquid handler (Labcyte, San Jose, CA) with 0.5% dimethyl sulfoxide (DMSO) in the final assay. Peptide/kinase mixtures were diluted in the appropriate enzymatic buffer and 5µL of the mixture was added to a 384-well small volume black plate. Reactions were initiated by the addition of 5 µL ATP in reaction buffer, the final reaction mixture consisted of 500 nM peptide substrate, 1 mM ATP, and appropriate amount of specific kinase. […] The plates were then sealed and centrifuged at 1800 rpm for 2 minutes. […] Half maximal inhibitory concentration (IC50) determination was performed by fitting the curve of percent control activity versus the log of the compound concentration using the GraphPad Prism 6.0 software.
Assay [2] concerns the target ZAP70 (Homo sapiens, UniProt P43403). The assay is described as follows: Enzyme selectivity panel. The settings on record: 1 mM ATP.
Protocol: as §2
In assay [3] the target is T1, ABL (Homo sapiens, UniProt P00519).
T1 construct: purchased In-house HTRF panel (56 kinases) and PerkinElmer (161-kinase panel)
The assay is described as follows: Broader kinase panel (PerkinElmer). As to conditions: 100 nM; read-out: Average Percent Inhibition. The source says:
(§1) […]. […] […].

In assay [4] the target is T2, ABL1(G250E) (Homo sapiens, UniProt P00519, G250E).
T2 construct: purchased In-house HTRF panel (56 kinases) and PerkinElmer (161-kinase panel)
The assay is described as follows: Broader kinase panel (PerkinElmer). As to conditions: 100 nM; read-out: Average Percent Inhibition.
Source text: as §1

In assay [5] the target is T3, AKT2 (Homo sapiens, UniProt P31751).
T3 construct: purchased In-house HTRF panel (56 kinases) and PerkinElmer (161-kinase panel)
The assay is described as follows: Broader kinase panel (PerkinElmer). The settings on record: 100 nM; read-out: Average Percent Inhibition.
Source text: as §1

For assay [6], the target named is T4, ALK (Homo sapiens, UniProt Q9UM73).
T4 construct: purchased In-house HTRF panel (56 kinases) and PerkinElmer (161-kinase panel)
T4 sequence (Q9UM73 19-1620): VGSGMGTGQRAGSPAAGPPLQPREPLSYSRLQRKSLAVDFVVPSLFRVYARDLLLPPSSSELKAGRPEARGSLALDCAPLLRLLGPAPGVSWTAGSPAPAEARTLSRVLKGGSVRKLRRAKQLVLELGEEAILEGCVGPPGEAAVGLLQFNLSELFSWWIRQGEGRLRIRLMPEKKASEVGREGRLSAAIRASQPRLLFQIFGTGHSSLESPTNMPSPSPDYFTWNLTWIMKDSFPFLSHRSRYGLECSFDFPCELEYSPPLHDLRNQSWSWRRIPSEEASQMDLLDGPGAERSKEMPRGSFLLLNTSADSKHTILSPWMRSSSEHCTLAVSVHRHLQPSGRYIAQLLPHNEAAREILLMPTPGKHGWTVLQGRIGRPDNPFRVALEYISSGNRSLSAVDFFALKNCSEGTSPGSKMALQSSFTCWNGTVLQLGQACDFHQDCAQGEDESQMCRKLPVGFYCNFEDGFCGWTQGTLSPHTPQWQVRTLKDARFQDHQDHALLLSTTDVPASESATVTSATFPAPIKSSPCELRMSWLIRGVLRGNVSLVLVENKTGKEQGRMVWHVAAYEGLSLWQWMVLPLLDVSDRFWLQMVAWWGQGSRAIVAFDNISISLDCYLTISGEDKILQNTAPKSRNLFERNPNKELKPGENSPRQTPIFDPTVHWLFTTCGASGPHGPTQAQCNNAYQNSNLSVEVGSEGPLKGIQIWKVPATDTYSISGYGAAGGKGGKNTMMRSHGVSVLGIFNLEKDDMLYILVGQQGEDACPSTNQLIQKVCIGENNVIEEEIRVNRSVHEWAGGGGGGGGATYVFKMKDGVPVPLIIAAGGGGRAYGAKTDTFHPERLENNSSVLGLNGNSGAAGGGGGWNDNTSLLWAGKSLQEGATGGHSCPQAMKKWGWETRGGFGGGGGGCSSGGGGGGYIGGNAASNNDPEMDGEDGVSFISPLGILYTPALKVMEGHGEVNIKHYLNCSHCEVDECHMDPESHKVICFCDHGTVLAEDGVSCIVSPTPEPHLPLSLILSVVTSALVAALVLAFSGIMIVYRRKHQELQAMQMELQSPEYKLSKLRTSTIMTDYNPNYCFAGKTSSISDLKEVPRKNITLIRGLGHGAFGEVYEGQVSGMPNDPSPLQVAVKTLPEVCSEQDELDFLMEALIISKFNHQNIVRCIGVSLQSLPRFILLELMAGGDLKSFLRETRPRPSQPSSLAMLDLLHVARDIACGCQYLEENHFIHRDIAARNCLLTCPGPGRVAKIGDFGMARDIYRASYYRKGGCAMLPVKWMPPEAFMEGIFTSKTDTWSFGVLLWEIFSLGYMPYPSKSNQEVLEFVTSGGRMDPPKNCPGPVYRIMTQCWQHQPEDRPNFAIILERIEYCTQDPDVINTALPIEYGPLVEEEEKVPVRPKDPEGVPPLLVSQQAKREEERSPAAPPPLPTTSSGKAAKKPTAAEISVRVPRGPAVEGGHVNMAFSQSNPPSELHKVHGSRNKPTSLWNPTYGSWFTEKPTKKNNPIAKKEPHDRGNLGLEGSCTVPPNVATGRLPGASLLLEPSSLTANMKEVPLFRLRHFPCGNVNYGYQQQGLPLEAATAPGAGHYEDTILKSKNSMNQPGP
The experiment in a line: Broader kinase panel (PerkinElmer). The settings on record: 100 nM; read-out: Average Percent Inhibition.
Source text: as §1

The test system of assay [7] is AMPK. The experiment in a line: Broader kinase panel (PerkinElmer). The settings on record: 100 nM.
Source text: as §1

Assay [8] concerns the target T5, Abl (Q252H) (Homo sapiens, UniProt P00519, Q252H).
T5 construct: purchased In-house HTRF panel (56 kinases) and PerkinElmer (161-kinase panel)
The experiment in a line: Broader kinase panel (PerkinElmer). As to conditions: 100 nM; read-out: Average Percent Inhibition.
Source text: as §1

The target in assay [9] is T6, Arg (Homo sapiens, UniProt P42684).
T6 construct: purchased In-house HTRF panel (56 kinases) and PerkinElmer (161-kinase panel)
The experiment in a line: Broader kinase panel (PerkinElmer). The settings on record: 100 nM; read-out: Average Percent Inhibition.
Source text: as §1

Assay [10] concerns the target T7, AurC (Homo sapiens, UniProt Q9UQB9).
T7 construct: purchased In-house HTRF panel (56 kinases) and PerkinElmer (161-kinase panel)
The experiment in a line: Broader kinase panel (PerkinElmer). The settings on record: 100 nM; read-out: Average Percent Inhibition.
Source text: as §1

The target of assay [11] is T8, CAMK4 (Homo sapiens, UniProt Q16566).
T8 construct: purchased In-house HTRF panel (56 kinases) and PerkinElmer (161-kinase panel)
The experiment in a line: Broader kinase panel (PerkinElmer). The settings on record: 100 nM; read-out: Average Percent Inhibition.
Source text: as §1

The target in assay [12] is T9, CDK3 (Homo sapiens, UniProt Q00526).
T9 construct: purchased In-house HTRF panel (56 kinases) and PerkinElmer (161-kinase panel)
T9 sequence (Q00526 whole entry): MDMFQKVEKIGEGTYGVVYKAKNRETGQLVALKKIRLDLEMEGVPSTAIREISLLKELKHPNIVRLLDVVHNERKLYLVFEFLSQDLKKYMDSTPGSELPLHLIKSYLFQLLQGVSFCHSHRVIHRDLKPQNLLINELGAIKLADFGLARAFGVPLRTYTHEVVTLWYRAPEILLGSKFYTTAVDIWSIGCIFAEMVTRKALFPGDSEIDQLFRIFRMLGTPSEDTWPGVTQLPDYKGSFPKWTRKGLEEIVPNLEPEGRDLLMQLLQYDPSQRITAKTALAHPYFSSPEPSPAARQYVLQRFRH
T9 sequence (P24864 whole entry partner): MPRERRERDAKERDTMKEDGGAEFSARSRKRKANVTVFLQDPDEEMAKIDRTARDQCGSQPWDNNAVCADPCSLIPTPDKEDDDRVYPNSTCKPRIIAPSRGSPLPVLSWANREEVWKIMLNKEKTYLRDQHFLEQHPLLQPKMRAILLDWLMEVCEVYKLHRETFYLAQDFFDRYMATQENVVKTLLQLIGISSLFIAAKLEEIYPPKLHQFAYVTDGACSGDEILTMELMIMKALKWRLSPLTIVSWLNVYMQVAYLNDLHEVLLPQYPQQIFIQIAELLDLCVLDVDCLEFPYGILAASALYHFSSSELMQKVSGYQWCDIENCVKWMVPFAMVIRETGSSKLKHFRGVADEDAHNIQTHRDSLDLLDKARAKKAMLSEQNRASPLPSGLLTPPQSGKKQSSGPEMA
The assay is described as follows: Broader kinase panel (PerkinElmer). The settings on record: 100 nM; read-out: Average Percent Inhibition.
Source text: as §1

Assay [13] concerns the target T10, DAPK1 (Homo sapiens, UniProt P53355).
T10 construct: purchased In-house HTRF panel (56 kinases) and PerkinElmer (161-kinase panel)
The experiment in a line: Broader kinase panel (PerkinElmer). As to conditions: 100 nM; read-out: Average Percent Inhibition.
Source text: as §1

Assay [14] has as its target T11, DYRK1a (Homo sapiens, UniProt Q13627).
T11 construct: purchased In-house HTRF panel (56 kinases) and PerkinElmer (161-kinase panel)
The assay is described as follows: Broader kinase panel (PerkinElmer). As to conditions: 100 nM; read-out: Average Percent Inhibition.
Source text: as §1

In assay [15] the target is T12, DYRK3 (Homo sapiens, UniProt O43781).
T12 construct: purchased In-house HTRF panel (56 kinases) and PerkinElmer (161-kinase panel)
The assay is described as follows: Broader kinase panel (PerkinElmer). The settings on record: 100 nM; read-out: Average Percent Inhibition.
Source text: as §1

In assay [16] the target is T13, EGFR(T790M) (Homo sapiens, UniProt P00533, T790M).
T13 construct: purchased In-house HTRF panel (56 kinases) and PerkinElmer (161-kinase panel)
T13 sequence (P00533 25-1210 T790M): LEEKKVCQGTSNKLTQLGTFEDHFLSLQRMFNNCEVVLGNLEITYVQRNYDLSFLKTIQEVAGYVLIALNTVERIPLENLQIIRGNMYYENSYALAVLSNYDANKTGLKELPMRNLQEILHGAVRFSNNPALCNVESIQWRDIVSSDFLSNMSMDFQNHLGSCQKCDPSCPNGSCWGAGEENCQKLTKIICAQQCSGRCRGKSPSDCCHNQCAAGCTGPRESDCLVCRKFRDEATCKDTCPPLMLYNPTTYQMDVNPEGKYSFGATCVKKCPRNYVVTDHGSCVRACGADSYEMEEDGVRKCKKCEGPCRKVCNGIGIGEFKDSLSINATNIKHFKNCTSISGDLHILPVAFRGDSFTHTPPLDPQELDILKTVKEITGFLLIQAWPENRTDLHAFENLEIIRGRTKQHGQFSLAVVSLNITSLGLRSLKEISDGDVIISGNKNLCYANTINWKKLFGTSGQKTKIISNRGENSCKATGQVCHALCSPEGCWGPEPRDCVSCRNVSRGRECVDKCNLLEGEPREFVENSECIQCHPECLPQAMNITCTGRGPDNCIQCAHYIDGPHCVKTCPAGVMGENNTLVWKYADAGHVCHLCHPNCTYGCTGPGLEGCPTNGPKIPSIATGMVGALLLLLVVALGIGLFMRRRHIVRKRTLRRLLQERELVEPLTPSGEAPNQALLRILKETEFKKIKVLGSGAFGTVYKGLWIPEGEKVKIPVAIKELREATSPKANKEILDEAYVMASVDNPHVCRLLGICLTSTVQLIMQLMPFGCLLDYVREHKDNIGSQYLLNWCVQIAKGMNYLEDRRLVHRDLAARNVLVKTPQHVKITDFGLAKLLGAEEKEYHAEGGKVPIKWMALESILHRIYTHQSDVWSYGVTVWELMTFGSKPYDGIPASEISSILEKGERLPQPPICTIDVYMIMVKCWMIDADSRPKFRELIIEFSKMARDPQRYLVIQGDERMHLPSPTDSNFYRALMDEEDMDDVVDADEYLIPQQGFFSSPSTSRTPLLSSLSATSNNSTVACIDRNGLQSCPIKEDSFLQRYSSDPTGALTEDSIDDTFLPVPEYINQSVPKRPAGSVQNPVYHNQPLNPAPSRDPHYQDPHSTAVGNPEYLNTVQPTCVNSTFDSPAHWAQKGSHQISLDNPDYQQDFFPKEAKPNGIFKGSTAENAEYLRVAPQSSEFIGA
The experiment in a line: Broader kinase panel (PerkinElmer). The settings on record: 100 nM; read-out: Average Percent Inhibition.
Source text: as §1

For assay [17], the target named is T14, EPHA1 (Homo sapiens, UniProt P21709).
T14 construct: purchased In-house HTRF panel (56 kinases) and PerkinElmer (161-kinase panel)
T14 sequence (P21709 26-976): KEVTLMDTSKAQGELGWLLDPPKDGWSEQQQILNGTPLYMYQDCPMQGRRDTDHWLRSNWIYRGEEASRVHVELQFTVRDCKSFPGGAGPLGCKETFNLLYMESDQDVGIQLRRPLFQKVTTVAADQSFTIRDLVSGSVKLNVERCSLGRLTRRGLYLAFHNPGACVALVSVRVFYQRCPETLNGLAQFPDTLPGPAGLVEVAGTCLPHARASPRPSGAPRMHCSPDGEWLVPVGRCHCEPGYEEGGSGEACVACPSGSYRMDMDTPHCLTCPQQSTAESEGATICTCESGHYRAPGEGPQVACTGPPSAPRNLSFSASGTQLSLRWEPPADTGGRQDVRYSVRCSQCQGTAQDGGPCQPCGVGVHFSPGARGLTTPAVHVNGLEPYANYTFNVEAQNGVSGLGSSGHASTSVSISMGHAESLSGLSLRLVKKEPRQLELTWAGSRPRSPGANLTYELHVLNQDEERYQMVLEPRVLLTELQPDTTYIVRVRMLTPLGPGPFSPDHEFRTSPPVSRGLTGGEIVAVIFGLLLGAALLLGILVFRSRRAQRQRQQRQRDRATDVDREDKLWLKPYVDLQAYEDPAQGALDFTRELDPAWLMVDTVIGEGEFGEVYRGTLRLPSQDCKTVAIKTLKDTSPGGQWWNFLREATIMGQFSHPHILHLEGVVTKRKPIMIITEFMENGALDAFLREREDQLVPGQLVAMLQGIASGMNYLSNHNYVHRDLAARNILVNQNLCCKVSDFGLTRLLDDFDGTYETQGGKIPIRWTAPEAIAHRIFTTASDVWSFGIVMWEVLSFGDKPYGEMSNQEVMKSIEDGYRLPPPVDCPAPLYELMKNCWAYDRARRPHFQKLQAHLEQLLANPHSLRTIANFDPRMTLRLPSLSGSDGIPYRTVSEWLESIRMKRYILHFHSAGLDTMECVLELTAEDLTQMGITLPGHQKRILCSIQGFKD
The experiment in a line: Broader kinase panel (PerkinElmer). The settings on record: 100 nM; read-out: Average Percent Inhibition.
Source text: as §1

The target in assay [18] is T15, EPHB4 (Homo sapiens, UniProt P54760).
T15 construct: purchased In-house HTRF panel (56 kinases) and PerkinElmer (161-kinase panel)
The experiment in a line: Broader kinase panel (PerkinElmer). As to conditions: 100 nM; read-out: Average Percent Inhibition.
Source text: as §1

The target of assay [19] is T16, Erk2 (Homo sapiens, UniProt P28482).
T16 construct: purchased In-house HTRF panel (56 kinases) and PerkinElmer (161-kinase panel)
The assay is described as follows: Broader kinase panel (PerkinElmer). As to conditions: 100 nM; read-out: Average Percent Inhibition.
Source text: as §1

Assay [20] deals with T17, FGFR3 [K650E] (Homo sapiens, UniProt P22607, K650E).
T17 construct: purchased In-house HTRF panel (56 kinases) and PerkinElmer (161-kinase panel)
The experiment in a line: Broader kinase panel (PerkinElmer). As to conditions: 100 nM; read-out: Average Percent Inhibition.
Source text: as §1

In assay [21] the target is T18, FGR (Homo sapiens, UniProt P09769).
T18 construct: purchased In-house HTRF panel (56 kinases) and PerkinElmer (161-kinase panel)
The experiment in a line: Broader kinase panel (PerkinElmer). As to conditions: 100 nM; read-out: Average Percent Inhibition.
Source text: as §1

Assay [22] addresses T19, FMS (Homo sapiens, UniProt P07333).
T19 construct: purchased In-house HTRF panel (56 kinases) and PerkinElmer (161-kinase panel)
The assay is described as follows: Broader kinase panel (PerkinElmer). The settings on record: 100 nM; read-out: Average Percent Inhibition.
Source text: as §1

Chain of ZAP70 (P43403 whole entry, species assumed): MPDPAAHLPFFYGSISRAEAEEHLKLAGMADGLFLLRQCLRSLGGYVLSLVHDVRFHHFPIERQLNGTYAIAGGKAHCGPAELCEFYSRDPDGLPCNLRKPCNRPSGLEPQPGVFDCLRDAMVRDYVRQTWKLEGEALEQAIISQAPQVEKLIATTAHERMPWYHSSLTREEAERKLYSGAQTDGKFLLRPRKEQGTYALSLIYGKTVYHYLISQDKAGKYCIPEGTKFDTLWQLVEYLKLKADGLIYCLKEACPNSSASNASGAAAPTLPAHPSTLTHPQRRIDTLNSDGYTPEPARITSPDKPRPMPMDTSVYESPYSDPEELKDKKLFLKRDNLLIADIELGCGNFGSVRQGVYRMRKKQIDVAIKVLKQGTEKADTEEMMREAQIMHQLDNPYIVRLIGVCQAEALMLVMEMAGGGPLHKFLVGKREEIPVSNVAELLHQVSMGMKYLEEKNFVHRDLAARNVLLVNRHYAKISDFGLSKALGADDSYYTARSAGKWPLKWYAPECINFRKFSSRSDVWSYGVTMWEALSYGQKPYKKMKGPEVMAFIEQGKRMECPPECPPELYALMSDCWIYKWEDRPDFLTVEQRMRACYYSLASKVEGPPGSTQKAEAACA

What is called IC50 is the concentration that inhibits the measured activity by half. In general, inhibition refers to the relative decrease from the control value, in per cent. Consider `CCN1C(=O)N(c2c(F)c(OC)cc(OC)c2F)Cc2cnc3[nH]c(CN4CCOCC4)cc3c21` [INCB054828, pemigatinib], for which the IC50 in assay [1] and in [2] was over 10 µM each time. Also, the inhibition at 0.1 µM in [3] was -4%; in [4], 1%; in [5], 2%; in assay [6], -1%; in assay [8], 1%; in assay [9] it was -4%. The inhibition at 0.1 µM in assay [10] is -4%; in [11] it was -1%; in [12], 11%; in assay [13] it was 1%; in assay [14] it was -2%; in assay [15] it was 0%. Also, the inhibition at 0.1 µM was -1% in [16]; 2% in assay [17]; 4% in assay [18]; 3% in assay [19]; 84% in assay [20]; 3% in assay [21]. Besides, the inhibition at 0.1 µM in assay [22] is -10%. Also, the “Average Percent Inhibition” value in [7] worked out at 4%.

These data come from PMC7313537 (PLoS ONE, 2020).
